Assay results as given in ChEMBL document CHEMBL1697821, “Development of a phospholipidosis database and predictive quantitative structure-activity relationship (QSAR) models” (Toxicol Mech Methods, 2008).

Tested on: Phospholipidosis
Test: Literature-mined public compounds from Kruhlak et al phospholipidosis modelling dataset

Row | Structure (SMILES) | Phospholipidosis
1 | CC[C@H]1OC(=O)[C@H](C)[C@@H](O[C@H]2C[C@@](C)(OC)[C@@H](O)[C@H](C)O2)[C@H](C)[C@@H](O[C@@H]2O[C@H](C)C[C@H](N(C)C)[C@H]2O)[C@](C)(OC)C[C@@H](C)C(=O)[C@H](C)[C@@H](O)[C@]1(C)O [CLARITHROMYCIN] | Negative: confirmed by electron microscopy
2 | O=C(O)[C@H]1/C(=C/CO)O[C@@H]2CC(=O)N21 [CLAVULANIC ACID] | Negative: based on the absence of positive reported data from WMDD
3 | CCC[C@@H]1C[C@@H](C(=O)N[C@@H]([C@H]2O[C@H](SC)[C@H](O)[C@@H](O)[C@H]2O)[C@H](C)Cl)N(C)C1 [CLINDAMYCIN] | Positive: strong inducer confirmed by electron microscopy
4 | Oc1c(I)cc(Cl)c2cccnc12 [CLIOQUINOL] | Negative: based on the absence of positive reported data from WMDD
5 | CC(CN(C)C)C(C)(O)Cc1ccc(Cl)cc1 (stereo unspecified) [CLOBUTINOL] | Negative: based on the absence of positive reported data from WMDD
6 | CC1(C)N=C(N)N=C(N)N1OCc1ccc(Cl)c(Cl)c1 [CLOCIGUANIL] | Positive: weak inducer based on presence of foamy macrophages and cytoplasmic vacuolations
7 | CC(C)/N=c1\cc2n(-c3ccc(Cl)cc3)c3ccccc3nc-2cc1Nc1ccc(Cl)cc1 [CLOFAZIMINE] | Negative: based on the absence of positive reported data from WMDD
8 | CN(C)C(=O)CCCOC(=O)C(C)(C)Oc1ccc(Cl)cc1 [CLOFIBRIDE] | Negative: based on the absence of positive reported data from WMDD
9 | CCOC(=O)NC(C)(C)Cc1ccc(Cl)cc1 [CLOFOREX] | Negative: confirmed by electron microscopy
10 | N#Cc1ccc(NC(=O)N=C(N)N)cc1Cl [CLOGUANAMIL] | Positive: weak inducer based on presence of foamy macrophages and cytoplasmic vacuolations
11 | CN(C)CCCC1c2ccccc2Nc2ccc(Cl)cc21 (stereo unspecified) [CLOMACRAN] | Positive: strong inducer confirmed by electron microscopy
12 | CN(C)CCCN1c2ccccc2CCc2ccc(Cl)cc21 [CLOMIPRAMINE] | Positive: strong inducer confirmed by electron microscopy
13 | Clc1cccc(Cl)c1N=C1NCCN1 [CLONIDINE] | Negative: based on the absence of positive reported data from WMDD
14 | C[C@]12C=CC(=O)C=C1C(Cl)=C[C@@H]1[C@@H]2[C@@H](O)C[C@@]2(C)[C@H]1CC[C@]2(O)C(=O)CO [CLOPREDNOL] | Negative: based on the absence of positive reported data from WMDD
15 | CC(C)(N)Cc1ccccc1Cl [CLORTERMINE] | Negative: based on the absence of positive reported data from WMDD
16 | CN1CCN(C2=Nc3ccccc3Sc3ccc(Cl)cc32)CC1 [CLOTHIAPINE] | Negative: based on the absence of positive reported data from WMDD
17 | CN1CCN(C2=Nc3cc(Cl)ccc3Nc3ccccc32)CC1 [CLOZAPINE] | Positive: strong inducer confirmed by electron microscopy
18 | CCC(c1ccc(OCCN(CC)CC)cc1)C(CC)c1ccc(OCCN(CC)CC)cc1 (stereo unspecified) [CORALGIL] | Positive: strong inducer confirmed by electron microscopy
19 | CC1CC(OC(=O)C(O)c2ccccc2)CC(C)(C)C1 (stereo unspecified) [CYCLANDELATE] | Negative: based on the absence of positive reported data from WMDD

Row | Structure (SMILES) | Phospholipidosis
20 | C[C@H]1[C@H]2Cc3ccc(O)cc3[C@]1(C)CCN2CC1CC1 [CYCLAZOCINE] | Negative: based on the absence of positive reported data from WMDD
21 | CN1CCN(C(c2ccccc2)c2ccccc2)CC1 [CYCLIZINE] | Positive: strong inducer confirmed by electron microscopy
22 | CCC1(C2=CCCCC2)C(=O)NC(=O)NC1=O [CYCLOBARBITAL] | Negative: based on the absence of positive reported data from WMDD
23 | CC(=O)Oc1ccc(C(=C2CCCCC2)c2ccc(OC(C)=O)cc2)cc1 [CYCLOFENIL] | Negative: based on the absence of positive reported data from WMDD
24 | CC(=O)[C@@]1(O)CC[C@H]2[C@@H]3C=C(Cl)C4=CC(=O)[C@@H]5C[C@@H]5[C@]4(C)[C@H]3CC[C@@]21C [CYPROTERONE] | Negative: based on the absence of positive reported data from WMDD
25 | NCCS [CYSTEAMINE] | Negative: based on the absence of positive reported data from WMDD
26 | Nc1ccn([C@@H]2O[C@H](CO)[C@@H](O)[C@@H]2O)c(=O)n1 [CYTARABINE] | Negative: based on the absence of positive reported data from WMDD
27 | CN(C)/N=N/c1[nH]cnc1C(N)=O [DACARBAZINE] | Negative: based on the absence of positive reported data from WMDD
28 | CC(C)(N)CO [DEANOL] | Negative: based on the absence of positive reported data from WMDD
29 | N=C(N)N1CCc2ccccc2C1 [DEBRISOQUIN] | Negative: based on the absence of positive reported data from WMDD
30 | C[N+](C)(C)CCCCCCCCCC[N+](C)(C)C.[Br-].[Br-] [DECAMETHONIUM BROMIDE] | Negative: based on the absence of positive reported data from WMDD
31 | CC(=O)O[C@H]1CC[C@@]2(C)C(=CC[C@@H]3[C@@H]2CC[C@]2(C)C(=O)CC[C@@H]32)C1 [DEHYDROEPIANDROSTERONE ACETATE] | Negative: based on the absence of positive reported data from WMDD
32 | CC(C)Nc1cccnc1N1CCN(C(=O)c2cc3cc(NS(C)(=O)=O)ccc3[nH]2)CC1 [DELAVIRDINE] | Negative: based on the absence of positive reported data from WMDD
33 | CNCCCN1c2ccccc2CCc2ccccc21 [DESIPRAMINE] | Positive: weak inducer based on presence of foamy macrophages and cytoplasmic vacuolations
34 | CC(=O)OCC(=O)[C@H]1CC[C@H]2[C@@H]3CCC4=CC(=O)CC[C@]4(C)[C@H]3CC[C@]12C [DESOXYCORTICOSTERONE ACETATE] | Negative: based on the absence of positive reported data from WMDD
35 | CN1C(=O)CN=C(c2ccccc2)c2cc(Cl)ccc21 [DIAZEPAM] | Negative: confirmed by electron microscopy
36 | NC[C@@H]1CC[C@@H](N)[C@@H](O[C@H]2[C@H](O)[C@@H](O[C@H]3O[C@H](CO)[C@@H](O)[C@H](N)[C@H]3O)[C@H](N)C[C@@H]2N)O1 [DIBEKACIN] | Positive: strong inducer confirmed by electron microscopy
37 | Cc1cc(=O)n(-c2ccccc2)n1C.OC(O)C(Cl)(Cl)Cl.OC(O)C(Cl)(Cl)Cl [DICHLORALPHENAZONE] | Negative: based on the absence of positive reported data from WMDD
38 | NS(=O)(=O)c1cc(Cl)c(Cl)c(S(N)(=O)=O)c1 [DICHLORPHENAMIDE] | Negative: based on the absence of positive reported data from WMDD

Row | Structure (SMILES) | Phospholipidosis
39 | C[C@H]1O[C@@H](O[C@H]2[C@@H](O)C[C@H](O[C@H]3[C@@H](O)C[C@H](O[C@H]4CC[C@@]5(C)[C@H](CC[C@@H]6[C@@H]5C[C@@H](O)[C@]5(C)[C@@H](C7=CC(=O)OC7)CC[C@]65O)C4)O[C@@H]3C)O[C@@H]2C)C[C@H](O)[C@@H]1O [DIGOXIN] | Negative: based on the absence of positive reported data from WMDD
40 | NNc1nnc(NN)c2ccccc12 [DIHYDRALAZINE] | Negative: based on the absence of positive reported data from WMDD
41 | CN(C)CCCN1c2ccccc2C(C)(C)c2ccccc21 [DIMETACRINE] | Negative: based on the absence of positive reported data from WMDD
42 | CCCCC[C@H](O)/C=C/[C@@H]1[C@@H](C/C=C\CCCC(=O)O)[C@@H](O)C[C@H]1O [DINOPROST] | Negative: based on the absence of positive reported data from WMDD
43 | OC(CCCN1CCCCC1)(c1ccccc1)c1ccccc1 [DIPHENIDOL] | Negative: based on the absence of positive reported data from WMDD
44 | CC(C)N(CCC(CCN1CCCCC1)(C(N)=O)c1ccccc1Cl)C(C)C (stereo unspecified) [DISOBUTAMIDE] | Positive: strong inducer confirmed by electron microscopy
45 | CC(C)N(CCC(C(N)=O)(c1ccccc1)c1ccccn1)C(C)C (stereo unspecified) [DISOPYRAMIDE] | Negative: based on the absence of positive reported data from WMDD
46 | CCN(CC)C(=S)S [DITIOCARB] | Negative: based on the absence of positive reported data from WMDD
47 | COc1cc(CC2c3c(cc(OC)c(OC)c3OC)CC[N+]2(C)CCCOC(=O)CCC(=O)OCCC[N+]2(C)CCc3cc(OC)c(OC)c(OC)c3C2Cc2cc(OC)c(OC)c(OC)c2)cc(OC)c1OC.[Cl-].[Cl-] (stereo unspecified) [DOXACURIUM CHLORIDE] | Negative: based on the absence of positive reported data from WMDD
48 | Cn1c(=O)c2c(ncn2CC2OCCO2)n(C)c1=O [DOXOFYLLINE] | Negative: based on the absence of positive reported data from WMDD
49 | COc1cccc2c1C(=O)c1c(O)c3c(c(O)c1C2=O)C[C@@](O)(C(=O)CO)C[C@@H]3O[C@H]1C[C@H](N)[C@H](O)[C@H](C)O1 [DOXORUBICIN] | Negative: confirmed by electron microscopy
50 | CN(C)CCOC(C)(c1ccccc1)c1ccccn1 (stereo unspecified) [DOXYLAMINE] | Negative: based on the absence of positive reported data from WMDD
51 | CCC(=O)O[C@H]1CC[C@H]2[C@@H]3CC[C@H]4CC(=O)[C@H](C)C[C@]4(C)[C@H]3CC[C@]12C [DROMOSTANOLONE PROPIONATE] | Negative: based on the absence of positive reported data from WMDD
52 | Cn1c(=O)c2c(ncn2CC(O)CO)n(C)c1=O (stereo unspecified) [DYPHYLLINE] | Negative: based on the absence of positive reported data from WMDD
53 | CC[C@H]1CN2CCc3cc(OC)c(OC)cc3[C@@H]2C[C@@H]1C[C@H]1NCCc2cc(OC)c(OC)cc21 [EMETINE] | Positive: weak inducer based on presence of foamy macrophages and cytoplasmic vacuolations
54 | CN[C@@H](C)[C@H](O)c1ccccc1 [EPHEDRINE] | Negative: based on the absence of positive reported data from WMDD
55 | CNC[C@H](O)c1ccc(O)c(O)c1 [EPINEPHRINE] | Negative: based on the absence of positive reported data from WMDD
56 | COc1cccc2c1C(=O)c1c(O)c3c(c(O)c1C2=O)C[C@@](O)(C(=O)CO)C[C@@H]3O[C@H]1C[C@H](N)[C@@H](O)[C@H](C)O1 [EPIRUBICIN] | Negative: based on the absence of positive reported data from WMDD
